IC50 data for 75 compounds are collected here from PubChem BioAssay AID1645868 (Buhrlage Lab, Dana-Farber Cancer Institute and Novartis …, 2021).

Each structure is given as a SMILES string. Activity calls are given as the source filed them.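 Rule for the calls: active = maximal percent inhibition of the deubiquitinase OTUD3 of at least 30% across the tested doses; inactive = the rest.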

The target in this assay is OTU domain-containing protein 3 (Homo sapiens) (UniProt Q5T2D3). Description: Validation of screening hits, potency titration, in vitro enzymatic, OTU domain-containing protein 3 DUB inhibitors (AID 1645868). Conditions: purified OTUD3, ubiquitin-rhodamine cleavage fluorescence, 2 h.
OTU domain-containing protein 3 (Homo sapiens), sequence (Q5T2D3 whole entry, looked up, the tested form may be a part): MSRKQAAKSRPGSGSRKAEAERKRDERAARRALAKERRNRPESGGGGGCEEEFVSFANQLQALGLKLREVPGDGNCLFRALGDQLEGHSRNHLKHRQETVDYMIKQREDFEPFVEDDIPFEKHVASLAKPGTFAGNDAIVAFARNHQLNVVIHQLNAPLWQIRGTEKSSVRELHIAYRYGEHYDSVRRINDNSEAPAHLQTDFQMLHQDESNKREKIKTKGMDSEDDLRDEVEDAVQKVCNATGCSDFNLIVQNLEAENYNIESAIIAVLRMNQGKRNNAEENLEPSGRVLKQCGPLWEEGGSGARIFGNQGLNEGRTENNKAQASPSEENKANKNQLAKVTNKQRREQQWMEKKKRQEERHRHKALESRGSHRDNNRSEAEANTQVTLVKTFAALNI
What is called IC50 is the concentration that inhibits the measured activity by half. For `Cc1cccc(NC(=O)Cn2cnc(-c3noc(-c4ccccc4)n3)c2)c1C`, the concentration for half-maximal inhibition (IC50) is 2.42 µM.
In the case of `Cc1noc(NS(=O)(=O)c2ccc(NC(=O)CSc3ccc4ccccc4c3)cc2)c1C` it was > 50 µM (inactive); in that of `CC(C)N1CC2CN(C(=O)c3ccccc3)CCN2Cc2ccccc21` (stereo not given), > 50 µM (inactive); in that of `Cc1cccc(NC(=O)c2noc3c2CCc2sccc2-3)n1`, > 50 µM (inactive).
In the case of `COc1ccc(OC)c(CCNC(=O)CCC2=NS(=O)(=O)c3ccc(C(F)(F)F)cc3N2)c1` it was 29.2 µM; in that of `CC1CC[C@]2(NC1)O[C@H]1C[C@H]3[C@@H]4CC[C@H]5C[C@@H](O[C@@H]6O[C@H](CO)[C@H](O[C@@H]7O[C@H](CO)[C@@H](O)[C@H](O[C@@H]8OC[C@@H](O)[C@H](O)[C@H]8O)[C@H]7O[C@@H]7O[C@H](CO)[C@@H](O)[C@H](O)[C@H]7O)[C@H](O)[C@H]6O)CC[C@]5(C)[C@H]4CC[C@]3(C)[C@H]1[C@@H]2C` (stereo not given in full), > 50 µM (inactive); in that of `Cc1nc2ccccc2nc1SCC(=O)Nc1ccc2c(c1)OCO2`, > 50 µM (inactive).
With `COc1ccc2cc1Oc1cc(ccc1OC)C(O)C13SSC4(C(=O)N1C)C(O)C1=COC=CC(OC2=O)C1N4C3=O` (stereo not given) the figure was > 50 µM (inactive).
For the compound `O=C(CN1C(=O)COc2ccc(Cl)cc21)Nc1cccc2ncccc12`, the IC50 was > 50 µM (inactive).
In the case of `COC(=O)CC1CC23OC2(C(=O)c2c(O)cccc2C3=O)C(C)O1` (stereo not given), the IC50 is > 50 µM (inactive).
In the case of `CC(=O)c1ccc(NC(=O)c2nc3ccccc3nc2N2CCOCC2)cc1` it was > 50 µM (inactive); in that of `O=C1CC(C(=O)Nc2ccccc2F)n2nc(-c3ccccc3)cc2N1` (stereo not given), 25.1 µM; in that of `N#Cc1ccc(NC(=O)Nc2cccn(Cc3c(F)cccc3Cl)c2=O)cc1`, > 50 µM (inactive).
With `COc1ccc(-c2cc3nc([C@H](C)NC(=O)Cc4ccccc4C)nn3cn2)cc1` the figure was 6.66 µM; with `Cn1c(=O)c2c(ncn2CC(=O)NC2CCCc3ccccc32)n(C)c1=O` (stereo not given), > 50 µM (inactive).
As for `CC1CCN(C(=O)c2cn(-c3cc(N4CCC(C)CC4)ncn3)cn2)CC1`, the IC50 is > 50 µM (inactive).
In the case of `Cc1nc(SCC(=O)Nc2cc(Cl)ccc2C)c2oc3ccccc3c2n1` it was > 50 µM (inactive); in that of `COc1cccc(CCNC(=O)CCn2c(=O)c(C)nc3cc(C)c(C)cc32)c1`, > 50 µM (inactive).
In the case of `COc1ccc(OC)c2c(C)cc(N3CCN(S(=O)(=O)c4ccc5c(c4)CCCN5S(C)(=O)=O)CC3)nc12` it was 21.1 µM; in that of `CC(=O)Nc1ccc([C@H]2OCC(=O)N(C3CCOCC3)[C@@H]2CO)cc1`, > 50 µM (inactive); in that of `COc1ccc(OC)c(NC(=O)C2Oc3ccccc3NC2=O)c1` (stereo not given), > 50 µM (inactive).
Consider `COc1ccc(-c2cc3nc([C@H](C)NC(=O)Cc4cccc(F)c4)nn3cn2)cc1`, for which the half-inhibitory concentration (IC50) is 15.8 µM.
In the case of `CC(C)CC1NC(=O)C2CCCN2C1=O` (stereo not given) it was > 50 µM (inactive); in that of `CCCc1c(C(=O)O)c(O[C@H]2O[C@H](C)[C@@H](OC)[C@H](OC)[C@@H]2OC)cc2cc3c(c(O)c12)C(=O)c1c(O)cc(O[C@@H]2O[C@@H](C)[C@H](O[C@H]4O[C@H](C)[C@@H](OC)[C@H](OC)[C@@H]4O)[C@@H](OC)[C@H]2O)cc1C3=O`, > 50 µM (inactive); in that of `O=C1c2c(O)cccc2C2(Oc3cccc4cccc(c34)O2)C2OC12` (stereo not given), 22.5 µM.
For `Cc1ccc(-n2cc(C(=O)NCc3cccnc3)nn2)cc1C`, the IC50 was 26.5 µM.
For the compound `C=C(NC(=O)C(=C)NC(=O)c1csc(C2=N[C@@H]3c4csc(n4)[C@H]4NC(=O)c5csc(n5)[C@H]([C@](C)(O)[C@@H](C)O)NC(=O)C5CSC(=N5)/C(=C/C)NC(=O)C([C@@H](C)O)NC(=O)c5csc(n5)[C@]3(CC2)NC(=O)[C@H](C)NC(=O)C(=C)NC(=O)[C@H](C)NC(=O)C([C@@H](C)CC)NC2C=Cc3c(C(C)O)cc(nc3[C@H]2O)C(=O)OC4C)n1)C(N)=O` (stereo not given in full), the IC50 is > 50 µM (inactive).
With `O=C(CNC(=O)c1cc2ccccc2[nH]1)Nc1ccc2c(c1)OCCO2` the figure was > 50 µM (inactive).
`CC(=O)Nc1ccc(NC(=O)c2cc(-c3cc(C)cc(C)c3O)n[nH]2)cc1`: the half-maximal inhibitory concentration (IC50) is 21.8 µM.
Regarding `O=C(NCc1ccccc1Cl)c1ccc(-c2nnc(-c3ccccc3)o2)cc1`, the IC50 was 5.57 µM.
In the case of `COc1ccc(C(=O)Nc2nc3n(n2)C(c2ccccc2)CC(=O)N3)cc1` (stereo not given) it was 18.7 µM; in that of `CCOc1ccc(NC(=O)CSc2nc3n[nH]c(C)c3c(=N)n2-c2ccc(OC)cc2)cc1`, > 50 µM (inactive); in that of `CN1C(=O)c2cc(NC(=O)c3ccccc3Cl)ccc2Oc2ccccc21`, > 50 µM (inactive).
As for `Cc1ccc(CNC(=O)Cn2cnc3c(cnn3-c3cccc(Cl)c3)c2=O)cc1`, the IC50 is > 50 µM (inactive).
For the compound `Fc1ccc(Cc2nc(-c3ccc4nncn4c3)no2)cc1`, the IC50 is > 50 µM (inactive).
With `Cc1cc(C(=O)CN2CCN(Cc3ccc4c(c3)OCO4)CC2)c(C)n1-c1ccc2c(c1)OCO2` the figure was > 50 µM (inactive).
In the case of `CCOc1ccc(NC(=O)c2cc(-c3ccccc3)c(N3CCOCC3)s2)cc1`, the half-maximal inhibitory concentration (IC50) is 27.2 µM.
`O=C(COc1ccc(Cl)cc1)N1CCc2cc3ccccc3nc21`: the IC50 was > 50 µM (inactive).
With `Cc1ccc(C(=O)Nc2cc3c4c(c2)CC(=O)N4CCC3)cc1C` the figure was > 50 µM (inactive); with `COc1cc(Cn2cnc3c([nH]c4ccc(Br)cc43)c2=O)cc(OC)c1`, 12.7 µM.
In the case of `Cc1ccc(-c2ccc(N3CCOCC3)nn2)cc1S(=O)(=O)N1CCOCC1` it was > 50 µM (inactive).
In the case of `CCn1c(CNc2ccc(Cl)cc2)nnc1SCC(=O)Nc1ccccc1` it was > 50 µM (inactive).
Take `CC(C)(C)c1cc(C[C@@H]2C[C@H](NC(=O)N3CCOCC3)C2(C)C)no1`: the IC50 was > 50 µM (inactive).
In the case of `CC1CCN(S(=O)(=O)c2ccc(C(=O)Nc3ccc(S(N)(=O)=O)cc3)cc2)CC1`, the IC50 was > 50 µM (inactive).
With `COC(=O)c1ccc(Cn2cnc3ccc(Br)cc3c2=O)o1`, the IC50 was > 50 µM (inactive).
With `C=C(NC(=O)C(=C)NC(=O)c1csc(C2=N[C@@H]3c4csc(n4)[C@H]4NC(=O)c5csc(n5)[C@H]([C@](C)(O)[C@@H](C)O)NC(=O)[C@H]5CSC(=N5)/C(=C/C)NC(=O)C([C@@H](C)O)NC(=O)c5csc(n5)C3(CC2)NC(=O)[C@H](C)NC(=O)C(=C)NC(=O)[C@H](C)NC(=O)C([C@@H](C)CC)N[C@@H]2C=Cc3c(C(C)O)cc(nc3[C@H]2O)C(=O)OC4C)n1)C(N)=O` (stereo not given in full) the figure was > 50 µM (inactive); with `O=C(Cn1cc(C(=O)C(F)(F)F)c2ccccc21)N1CCc2ccccc21`, 4.98 µM; with `O=C(NCc1ccc(-c2nc3cnccc3o2)cc1)c1ccccc1Br`, > 50 µM (inactive).
For the compound `COc1cccc(C(=O)Oc2ccc3c(=O)c(-c4ccc(OC)c(OC)c4)coc3c2)c1`, the IC50 is > 50 µM (inactive).
In the case of `CSc1cccc(NC(=O)CNC(=O)c2cc3ccccc3o2)c1` it was > 50 µM (inactive); in that of `N#Cc1cccc(NC(=O)Nc2cccn(Cc3ccccc3F)c2=O)c1`, > 50 µM (inactive).
In the case of `CC(=O)Nc1ccc(-n2cnc(C(=O)NC(C)c3ccccc3)c2)nc1` (stereo not given) it was > 50 µM (inactive).
With `O=C(/C=C/c1c(F)cccc1Cl)N1CCc2ccccc2C1` the figure was > 50 µM (inactive); with `COc1c(C)c(C(O)C(C)O)c2[nH]c3ccc(CC=C(C)C)cc3c2c1O` (stereo not given), 25.6 µM.
For the compound `COc1cccc2c1OCC(NS(=O)(=O)c1cc(C)ccc1C)C2` (stereo not given), the IC50 is > 50 µM (inactive).
With `CN[C@H]1CC2(CCN(C(=O)CCCn3cccn3)CC2)OC[C@]1(C)O` the figure was > 50 µM (inactive); with `O=[N+]([O-])c1ccc(N2CCN(c3ncnc4c3[nH]c3ccc(F)cc34)CC2)cc1`, 2.45 µM; with `COc1ccc(-n2nnc(C(=O)Nc3ccc(F)cc3)c2C)cc1`, > 50 µM (inactive).
In the case of `CCCn1cc(C(=O)N2CCC3(CC2)CC2(CO3)Nc3ccccc3-n3cccc32)c(C)n1` (stereo not given), the IC50 was > 50 µM (inactive).
With `COc1ccc(/C=C/C(=O)Nc2c3c(nc4c2CCC4)CCCC3)cc1` the figure was 23.6 µM; with `C/C1=C\CCC(C)C(O)CC(O)C(C)C(O)CCC(C)C(O)CC2(O)OC(CC(OC(=O)CC(=O)O)CC(O)CC(O)CC(O)C(C)C(O)/C=C/C(C)C(C(C)CCCCCCCCN=C(N)N)OC1=O)CC(O)C2O` (stereo not given), > 50 µM (inactive).
With `O=C(Cn1c(=O)n(CCCC(=O)N2CC=C(c3ccccc3)CC2)c(=O)c2ccccc21)NCCC1=CCCCC1`, the IC50 was > 50 µM (inactive).
With `COC(=O)c1ccc(Cn2cnc3ccc(F)cc3c2=O)o1` the figure was > 50 µM (inactive).
With `CC(=O)c1ccc(NC(=O)/C(=C/c2ccco2)n2nnnc2-c2ccccc2)cc1` the figure was > 50 µM (inactive); with `O=C(c1ccc2ncccc2c1)N1CCC2(C1)Nc1cccnc1NC2=NC1CCCC1` (stereo not given), > 50 µM (inactive); with `Cc1cccc(NC(=O)Nc2nnc(CC(=O)NCc3ccccc3)s2)c1`, 23.9 µM.
Take `CC(=O)c1ccc(N2C(=O)N(Cc3cccc([N+](=O)[O-])c3)c3ccccc3S2(=O)=O)cc1`: the IC50 was > 50 µM (inactive).
With `O=C(Nc1ccc2nccnc2c1)c1cccc(C(F)(F)F)c1` the figure was > 50 µM (inactive).
With `COc1ccc(NC(=O)c2[nH]nc3c2COc2ccccc2-3)c(OC)c1` the figure was 19.1 µM; with `Cc1c(CC(=O)Nc2nn[nH]n2)c(=O)oc2cc3c(cc12)CCC1(CCCCC1)O3`, > 50 µM (inactive); with `COc1ccc(NC(=O)c2nnn(-c3ccccc3)c2C)cc1OC`, > 50 µM (inactive).
As for `O=C(NC(Cc1ccccc1)c1nc2ccccc2[nH]1)C1CC1` (stereo not given), the IC50 was > 50 µM (inactive).
In the case of `CNc1nc2c(c(=O)n1Cc1ccccc1)CN(C(=O)c1ccc(CN)cc1)CC2` it was > 50 µM (inactive).
In the case of `Cc1cc(C(=O)N2CCOCC2)c(C)n1-c1ccc(O)cc1` it was > 50 µM (inactive).
Consider `COc1ccc(C(=O)CSc2nnc(-c3cc4cccc(OC)c4o3)n2C)cc1OC`, for which the IC50 is > 50 µM (inactive).
